We go through nine compounds from publication PMC8457749, “Design, Synthesis, and Anticancer Activity Evaluation of Hybrids of Azoles and Barbituric Acids” (Iranian Journal of Pharmaceutical Research : IJPR, 2021).

Data set [1] concerns BEL-7402 cells. Kind of data set: MTT antiproliferative assay, BEL-7402. It counts as cell-based, human. The settings on record: for inhibition at 100 µM / IC50: Homo sapiens, Bel-7402, 48 h; for inhibition at 100 µM: read-out: Growth Inhibition at 100 μM (%) BEL-7402; for IC50: read-out: IC50 BEL-7402; for Selectivity index BEL-7402: IC50 on normal cells (L02)/IC50 on tumor cells (BEL-7402). The procedure:
(§1) The antiproliferative activity of the target compounds against the panel of three different human cancer cell lines, liver (BEL-7402), colorectal (HCT-116), and breast (MCF-7) cell lines was evaluated using a standard MTT-based colorimetric assay. All cell lines were obtained from the Key Laboratory of Natural Resources and Functional Molecules of the Changbai Mountain (Yanbian University) and maintained in Dulbecco’s modified Eagle’s medium (DMEM) and RPMI Media 1640 (RPMI1640), supplemented with 10% foetal bovine serum (FBS) at 37 °C in a humidified atmosphere containing 5% CO2.
(§2) The cells were plated in 96-well plates at appropriate densities to ensure exponential growth throughout the experimental period (9 × 10^3 cells per well) and then allowed to adhere for 24 h. the cells were then treated for 48 h with each compound. After 48 h of incubation, 10 μL of MTT solution was added to each well to a final concentration of 2 mg/mL. the plates were then incubated for a further 4 h. After incubation, the MTT solution was removed and 150 μL of DMSO was added to each well for coloration. The plates were shaken vigorously for 10 min at room temperature to ensure complete solubilisation. The optometric density (OD) was read on a microplate reader (EL × 800, BioTek, Highland Park, Winooski, VT, USA) at 492 nm, and the data were subsequently analysed. The percentage of cell growth inhibition was calculated from the following Equation:
(§3) Inhibitory rate (%) = [1 − (ODtreated − ODblank)/(ODcontrol − ODblank)] × 100%
(§4) To obtain the antiproliferative activity of compounds 3a-3s and 4a-4d, the compounds were selected in the same way with four serial concentrations (1, 10, 50 and 100 μM) of those compounds. The optometric density (OD) reading was then used to calculate the IC50.

A further data set concerns HCT-116 cells. Kind of data set: MTT antiproliferative assay, HCT-116. It counts as cell-based, human. The conditions noted are these: for inhibition at 100 µM / IC50: Homo sapiens, HCT-116, 48 h; for inhibition at 100 µM: read-out: Growth Inhibition at 100 μM (%) HCT-116; for IC50: read-out: IC50 HCT-116; for Selectivity index HCT-116: IC50 on normal cells (L02)/IC50 on tumor cells (HCT-116). The procedure: as §1, §2, §3, §4
For orientation: Tetrazolium dyes change colour on reduction, which living cells bring about.

In a further data set the test system is L02 cells. Put plainly: Antiproliferative activity against normal cell line L02. It counts as cell-based. The settings on record: Homo sapiens, L02, read-out: L02 IC50. How it is done:
The lack of selective cytotoxicity is the main factor that restricts the dose of most conventional chemotherapeutic agents ([21]). […] Selectivity indexes between cancer cells and L02 cells were calculated.

The test system of another data set is MCF-7 cells. Put plainly: MTT antiproliferative assay, MCF-7. It counts as cell-based, human. The settings on record: for inhibition at 100 µM / IC50: Homo sapiens, MCF7, 48 h; for inhibition at 100 µM: read-out: Growth Inhibition at 100 μM (%) MCF-7; for IC50: read-out: IC50 MCF-7; for Selectivity index MCF-7: IC50 on normal cells (L02)/IC50 on tumor cells (MCF-7). How it is done: as §1, §2, §3, §4

For data set [2], the system named is BEL-7402 cells. Kind of data set: Apoptosis by flow cytometry (annexin V-FITC/PI). It counts as cell-based, human. The settings on record: 24 h. The procedure: Apoptosis was detected using an Apoptosis Detection Kit (Invitrogen, Eugene, OR, USA). Briefly, BEL-7402 cells were cultured in 6-well plates (1.0 × 10^6 cells per well) and incubated at 37 °C for 12 h. Cells with exponential growth were then incubated with compound 3s at different concentrations (5 μM and 20 μM). Following 24 h of incubation, the cells were collected, washed twice with PBS and once with 1 × binding buffer, and then stained with 5 […] and […] (5 mg/mL) in 1 × binding buffer for 30 min at 20 °C in the dark. Apoptotic cells were enumerated using a FACSCalibur flow cytometer with Cell Quest software (Becton–Dickinso, Franklin Lakes, NJ, USA).

For a further data set, the system named is HCT116 cancer cells. Also noted: method as in PMID 30981113. The settings on record: HCT116 cancer cells ref 11; read-out: IC50 anti-proliferative activity HCT116; cited from earlier work.
Another data set deals with HCT116 cell line. Also noted: method as in earlier work. The settings on record: cited from earlier work.
A further data set has as its system MCF-7 cell line. Also noted: method as in earlier work. The settings on record: cited from earlier work.

For the compound `O=C1NC(=O)C(=Cc2cn(-c3cccc(F)c3)nn2)C(=O)N1` [Compound 3c, 5-((1-(3-fluorophenyl)-1H-1,2,3-triazol-4-yl)methylene)pyrimidine-2,4,6(1H,3H,5H)-trione], the melting point stood at 250 °C. Further, in the data set with BEL-7402 cells [1], the inhibition at 100 µM was 79 ± 3.9%, the half-inhibitory concentration (IC50) stood at 12.2 ± 0.91 µM and the “Selectivity index BEL-7402” value came out at 6.74. Besides, in the data set with HCT-116 cells, the inhibition at 100 µM worked out at 48.4 ± 2.3% and the IC50 was greater than 100 µM. Further, in the data set with L02 cells, the IC50 came out at 82.3 ± 4 µM. Also, in the data set on MCF-7 cells, the inhibition at 100 µM was found to be 34.6 ± 1.8% and the half-inhibitory concentration (IC50) was greater than 100 µM.

In turn, `O=C1NC(=O)C(=Cc2cn(-c3cccc(Cl)c3)nn2)C(=O)N1` [Compound 3f, 5-((1-(3-chlorophenyl)-1H-1,2,3-triazol-4-yl)methylene)pyrimidine-2,4,6(1H,3H,5H)-trione] gave a melting point of 250 °C. Further, in the data set on BEL-7402 cells [1], the inhibition at 100 µM came out at 75.2 ± 3%, the IC50 worked out at 15.9 ± 1.32 µM and the “Selectivity index BEL-7402” value was 5.89. Also, in the data set on HCT-116 cells, the inhibition at 100 µM came out at 79.3 ± 5.6%, the IC50 was 14.9 ± 0.55 µM and the “Selectivity index HCT-116” value came to 6.28. Moreover, in the data set on L02 cells, the IC50 was 93.9 ± 5.9 µM. In the data set with MCF-7 cells, the inhibition at 100 µM came out at 58 ± 3.2%, the 50% inhibitory concentration (IC50) was 29.1 ± 0.34 µM and the “Selectivity index MCF-7” value is listed as 3.22.

In turn, `O=C1NC(=O)C(=Cc2cn(-c3ccc(Cl)cc3)nn2)C(=O)N1` [Compound 3g, 5-((1-(4-chlorophenyl)-1H-1,2,3-triazol-4-yl)methylene)pyrimidine-2,4,6(1H,3H,5H)-trione] displayed a melting point of 250 °C. In the data set with BEL-7402 cells [1], the inhibition at 100 µM came out at 46.6 ± 4.6% and the IC50 is greater than 100 µM. In the data set on HCT-116 cells, the inhibition at 100 µM worked out at 68.5 ± 4.6%, the half-inhibitory concentration (IC50) amounted to 9.59 ± 1.01 µM and the “Selectivity index HCT-116” value is recorded as 8.36. Also, the IC50 in the data set on L02 cells amounted to 80.2 ± 6 µM. For the same compound, in the data set with MCF-7 cells, the inhibition at 100 µM was determined as 23.9 ± 2.9% and the IC50 is greater than 100 µM.

As to `O=C1NC(=O)C(=Cc2cn(-c3cc(Cl)ccc3Cl)nn2)C(=O)N1` [Compound 3h, 5-((1-(2,5-dichlorophenyl)-1H-1,2,3-triazol-4-yl)methylene)pyrimidine-2,4,6(1H,3H,5H)-trione], the melting point amounted to 250 °C. In the data set on BEL-7402 cells [1], the inhibition at 100 µM worked out at 82.1 ± 3.2%, the IC50 amounted to 9.49 ± 1.78 µM and the “Selectivity index BEL-7402” value amounted to 8.30. Further, in the data set with HCT-116 cells, the inhibition at 100 µM is 81.2 ± 4.2%, the concentration for half-maximal inhibition (IC50) came out at 18.9 ± 1.97 µM and the “Selectivity index HCT-116” value is 4.17. The IC50 in the data set with L02 cells stood at 78.8 ± 3.9 µM. Further, in the data set with MCF-7 cells, the inhibition at 100 µM is 92.2 ± 8.5%, the IC50 stood at 75.9 ± 1.98 µM and the “Selectivity index MCF-7” value worked out at 1.04.

The compound `O=C1NC(=O)C(=Cc2cn(-c3cccc(Br)c3)nn2)C(=O)N1` [Compound 3k, 5-((1-(3-bromophenyl)-1H-1,2,3-triazol-4-yl)methylene)pyrimidine-2,4,6(1H,3H,5H)-trione] returned a melting point of 250 °C. Also, in the data set on BEL-7402 cells [1], the inhibition at 100 µM stood at 81.6 ± 3.6%, the IC50 was found to be 19.2 ± 1.8 µM and the “Selectivity index BEL-7402” value is 3.46. In the data set on HCT-116 cells, the inhibition at 100 µM was 88.9 ± 3.1%, the half-inhibitory concentration (IC50) came out at 19.4 ± 1.67 µM and the “Selectivity index HCT-116” value is given as 3.42. Besides, the IC50 in the data set on L02 cells was 66.4 ± 5.1 µM. Further, in the data set with MCF-7 cells, the inhibition at 100 µM came out at 31.7 ± 2.8% and the concentration for half-maximal inhibition (IC50) was greater than 100 µM.

As to `O=C1NC(=O)C(=Cc2cn(-c3ccc(C(F)(F)F)cc3)nn2)C(=O)N1` [Compound 3s, 5-((1-(4-(trifluoromethyl)phenyl)-1H-1,2,3-triazol-4-yl)methylene)pyrimidine-2,4,6(1H,3H,5H)-trione], in the data set with BEL-7402 cells [1], the inhibition at 100 µM was 95.3 ± 4.9%, the IC50 stood at 4.02 ± 0.5 µM and the “Selectivity index BEL-7402” value turned out to be 20.45. In the data set on HCT-116 cells, the inhibition at 100 µM came to 62.9 ± 1.9%, the IC50 stood at 21.5 ± 1.19 µM and the “Selectivity index HCT-116” value is recorded as 3.82. Besides, the IC50 with L02 cells came to 82.2 ± 4.8 µM. Further, in the data set with MCF-7 cells, the inhibition at 100 µM amounted to 90.4 ± 5.3%, the IC50 was determined as 8.98 ± 0.99 µM and the “Selectivity index MCF-7” value was 9.15. Further, in the data set on BEL-7402 cells [2] (5 μM), the “early-stage apoptosis rate (LR)” value turned out to be 1.33% and the “late-stage apoptosis rate (UR)” value is 4.94%. For the same compound, in the data set with BEL-7402 cells [2] (20 μM), the “dead cells (UL)” value is given as 27.40%, the “early-stage apoptosis rate (LR)” value is recorded as 3.37% and the “late-stage apoptosis rate (UR)” value was determined as 35.78%.

With `C=C1C(=O)[C@]23[C@H](OC(=O)c4cn(-c5ccc(OC)cc5)nn4)[C@H]1CC[C@H]2[C@@]12CO[C@]3(O)[C@@H](O)[C@@H]1C(C)(C)CC[C@@H]2O` [Compound C], in the data set with HCT116 cancer cells, the 50% inhibitory concentration (IC50) was 1.94 µM.

As to `CC1=NN=C(C)C1=NNc1sc2c(c1C(N)=O)CCCCC2` [D], the IC50 is 31.1 µM in the data set on HCT116 cell line and 22.7 µM with MCF-7 cell line.

As to `C=C1C(=O)[C@]23[C@H](O)[C@H]1CC[C@H]2[C@@]12CO[C@]3(O)[C@@H](O)[C@@H]1C(C)(C)CC[C@@H]2O` [oridonin], the IC50 in the data set with HCT116 cancer cells is 6.84 µM.

The inhibition is the percentage by which the read-out fell short of the control. What is called IC50 is the concentration needed to halve the response being measured. Broadly, the melting point is the temperature, or range, at which the solid turns liquid.
